Our source for the IC50 values is US11339130B1 (Blade Therapeutics, Inc., priority 2016, dated 2022).

Like-named read-outs stand apart in the source and are kept apart here.

Common to all, as to assay type: biochemical
In one experiment the target is T1, Human Calpain 9/NS1 (Homo sapiens, UniProt O14815).
T1 sequence (O14815 1-690): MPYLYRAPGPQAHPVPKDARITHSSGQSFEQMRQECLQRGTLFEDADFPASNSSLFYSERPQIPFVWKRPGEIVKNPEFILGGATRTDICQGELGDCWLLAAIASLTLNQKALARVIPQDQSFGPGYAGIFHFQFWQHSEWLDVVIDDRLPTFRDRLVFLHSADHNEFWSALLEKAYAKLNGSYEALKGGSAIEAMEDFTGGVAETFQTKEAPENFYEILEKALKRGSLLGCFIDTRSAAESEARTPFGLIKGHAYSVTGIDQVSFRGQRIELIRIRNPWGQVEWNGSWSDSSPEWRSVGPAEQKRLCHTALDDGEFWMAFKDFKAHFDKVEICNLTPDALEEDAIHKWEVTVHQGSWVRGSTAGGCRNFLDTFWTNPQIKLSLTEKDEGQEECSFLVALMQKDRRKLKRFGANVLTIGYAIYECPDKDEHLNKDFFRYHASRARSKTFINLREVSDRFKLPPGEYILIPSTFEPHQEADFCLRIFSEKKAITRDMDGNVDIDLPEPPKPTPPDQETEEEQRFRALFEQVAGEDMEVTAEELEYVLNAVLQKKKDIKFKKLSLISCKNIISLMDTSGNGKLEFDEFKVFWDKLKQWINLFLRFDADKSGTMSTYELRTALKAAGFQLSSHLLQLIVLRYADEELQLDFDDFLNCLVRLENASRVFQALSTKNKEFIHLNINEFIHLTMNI
T1 sequence (P04632 1-268 partner): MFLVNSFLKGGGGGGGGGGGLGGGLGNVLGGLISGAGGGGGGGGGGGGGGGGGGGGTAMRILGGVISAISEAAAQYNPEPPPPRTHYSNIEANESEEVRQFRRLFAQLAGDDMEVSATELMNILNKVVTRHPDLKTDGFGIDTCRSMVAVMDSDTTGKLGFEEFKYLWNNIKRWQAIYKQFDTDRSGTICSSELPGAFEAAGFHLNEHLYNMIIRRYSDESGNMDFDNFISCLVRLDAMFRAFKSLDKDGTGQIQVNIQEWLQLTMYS
Description: Calpain inhibition continuous fluorescence (FRET) assay, Human Calpain 9/NS1. To be noted: read-out: Human Calpain 9/NS1 IC50. Put shortly: (§1)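 Continuous FRET read (ex 490/em 520 nm, 10 min) of calpain 1, 2 or 9 cleaving an internally quenched 5-FAM peptide, triggered by substrate with CaCl2 after enzyme–inhibitor incubation at ambient 25 °C, pH 7.5 Tris/NaCl/DTT buffer. IC50 from initial rates (1-5 min) via 4-parameter fit.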

Another experiment has as its target T2, Human Calpain 1/NS1 (Homo sapiens, UniProt P07384).
T2 sequence (P07384 1-714): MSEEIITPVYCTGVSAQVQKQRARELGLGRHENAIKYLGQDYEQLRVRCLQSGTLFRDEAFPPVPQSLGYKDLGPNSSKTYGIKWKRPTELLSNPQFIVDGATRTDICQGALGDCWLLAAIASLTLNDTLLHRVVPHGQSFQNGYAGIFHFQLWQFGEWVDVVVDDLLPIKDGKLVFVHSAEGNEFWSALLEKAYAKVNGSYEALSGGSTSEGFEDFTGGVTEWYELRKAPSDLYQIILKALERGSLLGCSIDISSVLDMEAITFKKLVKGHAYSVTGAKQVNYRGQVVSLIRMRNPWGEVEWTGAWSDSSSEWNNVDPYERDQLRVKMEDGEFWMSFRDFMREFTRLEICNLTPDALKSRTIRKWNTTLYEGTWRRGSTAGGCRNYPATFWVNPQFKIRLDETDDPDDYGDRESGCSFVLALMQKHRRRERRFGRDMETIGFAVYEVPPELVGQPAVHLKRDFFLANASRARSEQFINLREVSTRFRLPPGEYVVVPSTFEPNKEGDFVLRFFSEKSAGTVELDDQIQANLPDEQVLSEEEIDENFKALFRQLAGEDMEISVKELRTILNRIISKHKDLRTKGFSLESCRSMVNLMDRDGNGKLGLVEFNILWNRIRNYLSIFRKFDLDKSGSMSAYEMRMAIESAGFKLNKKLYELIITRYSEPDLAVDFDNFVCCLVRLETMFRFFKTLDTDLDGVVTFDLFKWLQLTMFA
T2 sequence (P04632 1-268 partner): T1 sequence (P04632 1-268 partner)
Description: Calpain inhibition continuous fluorescence (FRET) assay, Human Calpain 1/NS1. To be noted: read-out: Human Calpain 1/NS1 IC50. In short, it runs like this:
as §1

Another experiment concerns the target T3, Human Calpain 2/NS1 (Homo sapiens, UniProt P17655).
T3 sequence (P17655 1-700): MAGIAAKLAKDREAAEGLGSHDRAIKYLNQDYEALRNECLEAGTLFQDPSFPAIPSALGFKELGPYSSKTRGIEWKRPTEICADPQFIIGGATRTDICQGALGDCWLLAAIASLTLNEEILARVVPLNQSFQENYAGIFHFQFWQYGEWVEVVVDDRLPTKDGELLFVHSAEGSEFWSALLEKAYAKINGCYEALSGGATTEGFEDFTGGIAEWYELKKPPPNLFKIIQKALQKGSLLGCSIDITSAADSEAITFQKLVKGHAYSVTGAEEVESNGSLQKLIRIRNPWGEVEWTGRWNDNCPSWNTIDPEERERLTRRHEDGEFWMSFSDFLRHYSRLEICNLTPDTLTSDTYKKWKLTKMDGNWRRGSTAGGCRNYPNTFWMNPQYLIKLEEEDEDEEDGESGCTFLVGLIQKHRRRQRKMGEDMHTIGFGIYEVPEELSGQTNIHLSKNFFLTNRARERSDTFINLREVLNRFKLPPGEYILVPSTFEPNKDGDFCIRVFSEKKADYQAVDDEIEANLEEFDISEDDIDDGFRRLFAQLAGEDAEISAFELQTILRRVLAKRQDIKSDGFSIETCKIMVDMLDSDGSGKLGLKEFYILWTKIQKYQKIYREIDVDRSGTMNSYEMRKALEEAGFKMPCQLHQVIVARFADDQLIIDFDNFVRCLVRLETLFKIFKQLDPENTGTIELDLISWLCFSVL
T3 sequence (P04632 1-268 partner): T1 sequence (P04632 1-268 partner)
Description: Calpain inhibition continuous fluorescence (FRET) assay, Human Calpain 2/NS1. To be noted: read-out: Human Calpain 2/NS1 IC50. In short, it runs like this:
as §1

Regarding `Cn1ncc(-c2ccccc2)c1C(=O)N[C@@H](Cc1ccccc1)C(=O)C(N)=O` [Compound 240], the IC50 at Human Calpain 9/NS1 (Column C), at Human Calpain 1/NS1 (Column A) and on Human Calpain 2/NS1 (Column B) was < 3 µM in each case.
With `Cc1ncc(C(=O)NC(Cc2ccccc2)C(=O)C(N)=O)n1-c1ccccc1` (stereo not drawn) [Compound 318, N-(4-amino-3,4-dioxo-1-phenylbutan-2-yl)-2-methyl-1-phenyl-1H-imidazole-5-carboxamide], the IC50 was < 3 µM on Human Calpain 9/NS1, < 3 µM on Human Calpain 1/NS1 and 3 to 10 µM at Human Calpain 2/NS1.
Take `Cc1cc(C(=O)N[C@@H](Cc2ccccc2)C(=O)C(=O)NCc2ccc(Cl)c(Cl)c2)n(-c2ccccc2)n1` [Compound 149, (S)—N-(4-((3,4-dichlorobenzyl)amino)-3,4-dioxo-1-phenylbutan-2-yl)-3-methyl-1-phenyl-1H-pyrazole-5-carboxamide]: the IC50 at Human Calpain 9/NS1 (Column C), at Human Calpain 1/NS1 (Column A) and at Human Calpain 2/NS1 (Column B) was > 10 µM in each case.
As for “(S)—N-(4-amino-3,4-dioxo-1-phenylbutan-2-yl)-4-chloro-1-ethyl-3-methyl-1H-pyrazole-5-carboxamide [Compound 312]”, the values for the IC50 on Human Calpain 9/NS1, at Human Calpain 1/NS1 and on Human Calpain 2/NS1 were 3 to 10 µM, < 3 µM and < 3 µM, respectively.
`Cc1noc(-c2ccccc2)c1C(=O)N[C@@H](Cc1ccccc1)C(=O)C(=O)NCc1ccc(OC(F)(F)F)cc1` [Compound 247, (S)—N-(3,4-dioxo-1-phenyl-4-((4-(trifluoromethoxy)benzyl)amino)butan-2-yl)-3-methyl-5-phenylisoxazole-4-carboxamide]: the IC50 on Human Calpain 9/NS1 (Column C), at Human Calpain 1/NS1 (Column A) and on Human Calpain 2/NS1 (Column B) was 3 to 10 µM in each case.
Take `Cn1cc(C(=O)NC(Cc2ccccc2)C(=O)C(N)=O)c(C(=O)c2ccccc2)n1` (stereo not drawn) [Compound 395, N-(4-amino-3,4-dioxo-1-phenylbutan-2-yl)-3-benzoyl-1-methyl-1H-pyrazole-4-carboxamide]: the results for the IC50 on Human Calpain 9/NS1, at Human Calpain 1/NS1 and at Human Calpain 2/NS1 were 3 to 10 µM, > 10 µM and 3 to 10 µM, respectively.
Consider `NC(=O)C(=O)[C@H](Cc1ccccc1)NC(=O)c1cncn1-c1cc(-c2ncco2)ccn1` [Compound 88, (S)—N-(4-amino-3,4-dioxo-1-phenylbutan-2-yl)-1-(4-(oxazol-2-yl)pyridin-2-yl)-1H-imidazole-5-carboxamide], for which the IC50 at Human Calpain 9/NS1 (Column C), at Human Calpain 1/NS1 (Column A) and on Human Calpain 2/NS1 (Column B) was < 3 µM in each case.
As to `Cn1nnc(-c2ccccc2)c1C(=O)N[C@@H](Cc1ccccc1)C(=O)C(N)=O` [Compound 261, (S)—N-(4-amino-3,4-dioxo-1-phenylbutan-2-yl)-1-methyl-4-phenyl-1H-1,2,3-triazole-5-carboxamide], the IC50 at Human Calpain 9/NS1 (Column C), at Human Calpain 1/NS1 (Column A) and on Human Calpain 2/NS1 (Column B) was < 3 µM each time.
As for `Cc1noc(-n2ccc(-c3ccccc3)n2)c1C(=O)N[C@@H](Cc1ccccc1)C(=O)C(N)=O` [Compound 211, (S)—N-(4-amino-3,4-dioxo-1-phenylbutan-2-yl)-3-methyl-5-(3-phenyl-1H-pyrazol-1-yl)isoxazole-4-carboxamide], the IC50 at Human Calpain 9/NS1 (Column C), on Human Calpain 1/NS1 (Column A) and on Human Calpain 2/NS1 (Column B) was < 3 µM in each case.
`COc1ccc(C[C@H](NC(=O)c2c(C)noc2-c2ccccc2)C(=O)C(N)=O)cc1` [Compound 46, (S)—N-(4-amino-1-(4-methoxyphenyl)-3,4-dioxobutan-2-yl)-3-methyl-5-phenylisoxazole-4-carboxamide]: the IC50 on Human Calpain 9/NS1 (Column C), on Human Calpain 1/NS1 (Column A) and on Human Calpain 2/NS1 (Column B) was < 3 µM in each case.
With `Cc1noc(-c2ccccc2)c1C(=O)N[C@@H](Cc1ccccc1)C(=O)C(=O)NC1CC1` [Compound 100, (S)—N-(4-(cyclopropylamino)-3,4-dioxo-1-phenylbutan-2-yl)-3-methyl-5-phenylisoxazole-4-carboxamide], the IC50 at Human Calpain 9/NS1 (Column C), at Human Calpain 1/NS1 (Column A) and at Human Calpain 2/NS1 (Column B) was < 3 µM in each case.
With `NC(=O)C(=O)[C@H](Cc1ccccc1)NC(=O)[C@@H]1C[C@@H](OCc2ccccc2)CN1c1ccccc1` [Compound 220, (2S,4R)—N—((S)-4-amino-3,4-dioxo-1-phenylbutan-2-yl)-4-(benzyloxy)-1-phenylpyrrolidine-2-carboxamide], the IC50 at Human Calpain 9/NS1 (Column C) is 3 to 10 µM; at Human Calpain 1/NS1 (Column A) it was < 3 µM; at Human Calpain 2/NS1 (Column B), < 3 µM.
`Cc1cc(C)nc(-n2nc(C)cc2C(=O)N[C@@H](Cc2ccccc2)C(=O)C(N)=O)c1` [Compound 123, (S)—N-(4-amino-3,4-dioxo-1-phenylbutan-2-yl)-1-(4,6-dimethylpyridin-2-yl)-3-methyl-1H-pyrazole-5-carboxamide]: the IC50 on Human Calpain 9/NS1 (Column C), at Human Calpain 1/NS1 (Column A) and at Human Calpain 2/NS1 (Column B) was < 3 µM throughout.
For the molecule `Cc1cc(C(=O)N[C@@H](Cc2ccccc2)C(=O)C(N)=O)n(-c2nccs2)n1` [Compound 215, (S)—N-(4-amino-3,4-dioxo-1-phenylbutan-2-yl)-3-methyl-1-(thiazol-2-yl)-1H-pyrazole-5-carboxamide], the IC50 on Human Calpain 9/NS1 (Column C), on Human Calpain 1/NS1 (Column A) and on Human Calpain 2/NS1 (Column B) was < 3 µM in each case.
Take `Cc1cccc(-c2nn(C)cc2C(=O)NC(Cc2ccccc2)C(=O)C(N)=O)n1` (stereo not drawn) [Compound 316, N-(4-amino-3,4-dioxo-1-phenylbutan-2-yl)-1-methyl-3-(6-methylpyridin-2-yl)-1H-pyrazole-4-carboxamide]: the IC50 was 3 to 10 µM at Human Calpain 9/NS1, > 10 µM on Human Calpain 1/NS1 and > 10 µM at Human Calpain 2/NS1.
As to `Cn1cc(C(=O)NC(Cc2ccccc2)C(=O)C(N)=O)c(C2CCCC2)n1` (stereo not drawn) [Compound 620, N-(4-amino-3,4-dioxo-1-phenylbutan-2-yl)-3-cyclopentyl-1-methyl-1H-pyrazole-4-carboxamide], the IC50 was 3 to 10 µM on Human Calpain 9/NS1, < 3 µM on Human Calpain 1/NS1 and < 3 µM on Human Calpain 2/NS1.
